In US20250066310A1, “MULTI-SUBSTITUTED URACIL DERIVATIVE AND PREPARATION METHOD THEREFOR AND APPLICATION THEREOF” (HANGZHOU ADAMERCK PHARMLABS INC., priority 2021, published 2025):

Tests used:
[1] = test system: rats with autologous thrombus and thrombin-induced cerebral ischemic injury; experiment: Ischemic brain injury induced by autologous thrombus and thrombin in rats (i.v., alone or with urokinase); format: in vivo, SD rats; conditions: n = 10
Method: Experimental Methods: A model of cerebral ischemic injury in SD rats was prepared by embolizing the middle cerebral artery of rats with autologous thrombus and thrombin via the external carotid artery to the internal carotid artery and the rats were randomly divided into 5 groups according to behavioral scores, a sham group (only the external carotid artery was isolated); a model-control group (saline was given to both groups in equal volume); urokinase (5000 U/kg) group; compound 1-1 ([…]) group; with 20 animals in each group (10 for detecting the rate of cerebral infarction, and the other 10 for pathological testing). Each group was administered slowly in the tail vein (1 ml per minute) 2 h after modeling, and the decrease in blood flow was monitored after thrombin injection and 120 min after administration. Neurobehavioral scoring was performed on the rats after 24 h to determine the neurological function of the rats; 2,3,5-triphenyltetrazolium chloride (TTC) staining was used to determine the rate of cerebral infarction and cerebral water content, and hematoxylin-eosin (HE) staining was used to observe the pathological damage of the brain in rats administered with the drug 2 h after cerebral ischemia.

[2] = test system: rats with focal cerebral ischemia (MCAO)/reperfusion; experiment: Prophylactic administration, cerebral ischemia-reperfusion injury (MCAO/R) in rats; format: in vivo; conditions: Mean ± SD, n = 8; for Cerebral infarction rate (%): 3 days before MCAO/R, 24 h after reperfusion; for behavioral score / cerebral water content (%): MCAO/R
Method: Experimental methods: SD rats were randomly divided into 6 groups, set as sham group, model control group, positive control drug ozagrel (6 mg/kg) group, and test drug compound 1-1 high (9 mg/kg), medium (3 mg/kg), and low (1 mg/kg) dose group. The administered groups were preadministered by tail vein injection, and the sham and model control groups were given an equal volume of saline, once a day for 3 consecutive days. Ten minutes after the last administration, the rat MCAO/R model was established, and reperfusion was performed 2 h after ischemia. 24 h after MCAO reperfusion, neurobehavioral scores were performed to determine the neurological function of rats; 2,3,5-triphenyltetrazolium chloride (TTC) staining method was used to determine the rate of cerebral infarction and cerebral water content in rats.

SMILES: CCOC(=O)CCNC(=O)CCNc1cc(=O)n(C)c(=O)n1C [Compound 1-1]
- Cerebral infarction rate ([1]; 9 mg/kg i.v., TTC staining, mean ± S.D.): 14.99 ± 10.91
- behavioral score ([1]; 9 mg/kg i.v., after 24 h, Mean ± SD): 1.70 ± 0.82
- cerebral water content (%) ([1]; 9 mg/kg i.v., mean ± S.D.): 80.32 ± 0.97 %
- Percentage decrease two hours after administration (%) ([1]; cerebral blood flow, 9 mg/kg i.v. 2 h after modeling, Mean ± SD): 29.24 ± 2.67 %
- Percentage decrease after thrombin injection (%) ([1]; cerebral blood flow, before administration, 9 mg/kg group, Mean ± SD): 39.18 ± 4.75%
- Pathology Score ([1]; cerebral ischemic areas, 9 mg/kg i.v., mean ± SD): 2.20 ± 1.01
- Cerebral infarction rate (%) ([2]; 1 mg/kg tail vein): 25.20 ± 9.71%
- behavioral score ([2]; 1 mg/kg tail vein): 2.63 ± 0.74
- cerebral water content (%) ([2]; 1 mg/kg tail vein): 81.81 ± 0.78%
- Cerebral infarction rate (%) ([2]; 3 mg/kg tail vein): 22.74 ± 9.12%
- behavioral score ([2]; 3 mg/kg tail vein): 2.00 ± 0.76
- cerebral water content (%) ([2]; 3 mg/kg tail vein): 81.57 ± 0.87%
- Cerebral infarction rate (%) ([2]; 9 mg/kg tail vein): 17.22 ± 9.35 %
- behavioral score ([2]; 9 mg/kg tail vein): 1.50 ± 0.53
- cerebral water content (%) ([2]; 9 mg/kg tail vein): 80.94 ± 0.92 %
